Activity calls are given as the source filed them. No cut-off for these calls is given here.
Assays:
Retinoid X receptor = target: T1, Retinoid X receptor (Homo sapiens, UniProt P28702+P48443+P19793); experiment: (§1) Displacement of radiolabeled 9-cis retinoic acid from human RXR by scintillation proximity assay; assay type: protein assay
T1 sequence (P28702 whole entry): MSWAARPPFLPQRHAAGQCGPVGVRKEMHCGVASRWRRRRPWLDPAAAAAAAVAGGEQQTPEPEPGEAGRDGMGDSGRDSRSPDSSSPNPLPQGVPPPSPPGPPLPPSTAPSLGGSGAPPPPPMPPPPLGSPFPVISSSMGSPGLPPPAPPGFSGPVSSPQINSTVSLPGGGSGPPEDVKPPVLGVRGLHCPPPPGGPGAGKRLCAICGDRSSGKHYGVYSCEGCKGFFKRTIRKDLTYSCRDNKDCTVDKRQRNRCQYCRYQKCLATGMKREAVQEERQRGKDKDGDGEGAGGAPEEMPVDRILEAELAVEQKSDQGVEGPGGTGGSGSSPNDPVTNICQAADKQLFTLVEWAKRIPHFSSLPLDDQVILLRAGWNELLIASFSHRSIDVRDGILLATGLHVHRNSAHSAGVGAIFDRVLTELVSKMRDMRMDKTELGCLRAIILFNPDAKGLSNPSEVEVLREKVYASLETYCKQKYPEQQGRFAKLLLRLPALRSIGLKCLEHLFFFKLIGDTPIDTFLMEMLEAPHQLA
T1 sequence (P48443 whole entry): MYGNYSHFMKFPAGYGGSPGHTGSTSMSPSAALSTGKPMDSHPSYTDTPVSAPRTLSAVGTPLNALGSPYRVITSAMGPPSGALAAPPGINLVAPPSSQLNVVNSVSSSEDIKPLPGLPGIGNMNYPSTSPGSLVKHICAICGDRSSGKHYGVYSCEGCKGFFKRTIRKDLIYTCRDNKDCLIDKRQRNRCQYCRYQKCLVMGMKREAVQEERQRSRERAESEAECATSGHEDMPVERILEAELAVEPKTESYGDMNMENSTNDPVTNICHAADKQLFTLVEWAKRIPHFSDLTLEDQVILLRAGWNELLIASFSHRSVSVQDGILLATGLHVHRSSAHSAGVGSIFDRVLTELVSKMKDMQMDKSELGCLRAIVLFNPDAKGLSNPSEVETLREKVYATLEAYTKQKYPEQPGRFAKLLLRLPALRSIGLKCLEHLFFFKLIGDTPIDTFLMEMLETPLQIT
T1 sequence (P19793 whole entry): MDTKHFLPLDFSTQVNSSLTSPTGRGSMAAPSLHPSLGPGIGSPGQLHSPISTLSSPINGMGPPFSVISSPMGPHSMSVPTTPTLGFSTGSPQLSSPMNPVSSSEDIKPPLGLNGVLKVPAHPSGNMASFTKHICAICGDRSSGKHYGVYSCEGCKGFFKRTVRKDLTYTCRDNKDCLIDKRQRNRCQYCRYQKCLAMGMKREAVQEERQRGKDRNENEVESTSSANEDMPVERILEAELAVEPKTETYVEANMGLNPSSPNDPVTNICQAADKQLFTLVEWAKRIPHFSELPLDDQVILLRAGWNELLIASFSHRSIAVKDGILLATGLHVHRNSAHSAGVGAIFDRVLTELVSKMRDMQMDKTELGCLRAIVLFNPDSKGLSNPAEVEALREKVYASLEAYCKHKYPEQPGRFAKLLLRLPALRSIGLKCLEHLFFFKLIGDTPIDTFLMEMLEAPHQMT

[1] = target: Retinoid X receptor (Homo sapiens) (UniProt P28702+P48443+P19793); experiment: as §1; assay type: protein assay
[2] = Clearance in C57 mouse at 1 mg/kg, iv and 10 mg/kg, po; assay type: ADME, organism-based; settings: in vivo
[3] = Terminal half life in C57 mouse at 10 mg/kg, po; assay type: ADME, organism-based; set-up: dose 10 mg/kg, route oral; settings: in vivo, read-out: beta t1/2 (converted)
Mus musculus [4] = experiment: Reduction in atherosclerotic lesion size in LDL receptor knockout C57BL/6 mouse thoracic aorta at 15 mg/kg administered with Western diet after 8 weeks by oil Red-O staining; assay type: functional; set-up: scale not given: the % may be the effect or the level left
Mus musculus [5] = experiment: Increase in CYP7A1 gene expression in LDL receptor knockout C57BL/6 mouse liver at 15 mg/kg administered with Western diet; assay type: functional

IC50 (Retinoid X receptor)	Activity [1]	clearance [2]	half-life [3]	Structure (SMILES)	Activity (Mus musculus [4])	fold change (FC) (Mus musculus [5])
> 10 µM				Fc1ccc(-c2c3cccc(C(F)(F)F)c3nn2Cc2ccc(F)cc2Cl)cc1 [LXR-623]		
	inactive	57 mL/min/kg	5.8 h	Fc1ccc(-c2c3cccc(C(F)(F)F)c3nn2Cc2ccccc2F)cc1	28%	4
